These are literature values, as cited in patent publication US9039924B2 (priority 2010, dated 2015).

For this series, the system named is rat. The note with it: in vivo; for LD50 values below 1000 or toxic: po.

Turning to `NC(N)=O` [CO(NH2)2, urea], the “LD50 (oral-rat; mg/kg)” value is listed as 8471 mg/kg.
For the molecule `N#C[O-].[K+]` [KCNO, potassium cyanate], the “LD50 values below 1000 or toxic” value is recorded as “below 1000”.
On to `O=N[O-].[K+]` [KNO2, potassium nitrite], for which the “LD50 values below 1000 or toxic” value is “below 1000”.
For `O.O.O.O.O.O=S([O-])([O-])=S.[Na+].[Na+]` [Na2S2O3•5H2O, sodium thiosulfate pentahydrate], the “LD50 (oral-rat; mg/kg)” value is listed as 2300 mg/kg.
On to `N#CO` [NaCNO, sodium cyanate], for which the “LD50 (oral-rat; mg/kg)” value is reported as 5 mg/kg and the “LD50 values below 1000 or toxic” value was “below 1000”.
With `O=NO` [NaNO2, sodium nitrite], the “LD50 values below 1000 or toxic” value is “below 1000”.
With ammonium thiocyanide [NH4CNS], the “LD50 (oral-rat; mg/kg)” value is given as 954 mg/kg and the “LD50 values below 1000 or toxic” value is “below 1000”.
On to potassium bromide [KBr], for which the “LD50 (oral-rat; mg/kg)” value is recorded as 3070 mg/kg.
On to potassium chloride [KCl], for which the “LD50 (oral-rat; mg/kg)” value was 2600 mg/kg.
For the molecule “potassium fluoride dihydrate [KF•2(H2O)]”, the “LD50 (oral-rat; mg/kg)” value is reported as 245 mg/kg and the “LD50 values below 1000 or toxic” value is given as “below 1000”.
For the molecule potassium iodide [KI], the “LD50 (oral-rat; mg/kg)” value is listed as 1862 mg/kg.
For the molecule “potassium thiosulfate pentahydrate [K2S2O3•5H2O]”, the “LD50 (oral-rat; mg/kg)” value is listed as 802 mg/kg and the “LD50 values below 1000 or toxic” value is recorded as “below 1000”.
